In experiment [1] the target is Tyrosine-protein kinase Lck (Homo sapiens) (UniProt P06239). Briefly: Inhibition of human full length LCK expressed in baculovirus assessed as substrate phosphorylation using fluorescence-labelled peptides as substrate at 420 uM after 90 mins by microfluidic peptide phosphorylation assay.
The target of experiment [2] is Serine/threonine-protein kinase pim-1 (Homo sapiens) (UniProt P11309). Briefly: Inhibition of human full length PIM1 expressed in baculovirus assessed as substrate phosphorylation using fluorescence-labelled peptides as substrate at 420 uM after 90 mins by microfluidic peptide phosphorylation assay.
The target in experiment [3] is T1, Protein kinase C zeta type (Homo sapiens) (UniProt Q05513).
T1 sequence (whole entry): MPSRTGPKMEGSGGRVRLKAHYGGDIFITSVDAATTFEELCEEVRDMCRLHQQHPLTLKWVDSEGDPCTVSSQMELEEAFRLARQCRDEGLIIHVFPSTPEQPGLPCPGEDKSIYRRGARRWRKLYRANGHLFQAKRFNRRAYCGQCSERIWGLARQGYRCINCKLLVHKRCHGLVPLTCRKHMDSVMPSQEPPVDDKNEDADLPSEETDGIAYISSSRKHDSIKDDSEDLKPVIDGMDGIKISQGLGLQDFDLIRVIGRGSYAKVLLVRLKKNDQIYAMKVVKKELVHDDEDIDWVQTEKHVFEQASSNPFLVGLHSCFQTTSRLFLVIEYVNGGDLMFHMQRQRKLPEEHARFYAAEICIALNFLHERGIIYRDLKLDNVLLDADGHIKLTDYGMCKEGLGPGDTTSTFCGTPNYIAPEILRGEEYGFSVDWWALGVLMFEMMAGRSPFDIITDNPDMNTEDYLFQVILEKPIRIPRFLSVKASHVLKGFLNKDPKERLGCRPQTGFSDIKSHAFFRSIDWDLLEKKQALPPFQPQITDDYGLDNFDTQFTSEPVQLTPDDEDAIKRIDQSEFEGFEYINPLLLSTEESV
Briefly: Inhibition of human full length PKC zeta expressed in baculovirus assessed as substrate phosphorylation using fluorescence-labelled peptides as substrate at 0.1 uM after 90 mins by microfluidic peptide phosphorylation assay.

The test system of experiment [4] is T2, Receptor-type tyrosine-protein kinase FLT3 (Homo sapiens), P36888 [D835Y].
T2 sequence (whole entry): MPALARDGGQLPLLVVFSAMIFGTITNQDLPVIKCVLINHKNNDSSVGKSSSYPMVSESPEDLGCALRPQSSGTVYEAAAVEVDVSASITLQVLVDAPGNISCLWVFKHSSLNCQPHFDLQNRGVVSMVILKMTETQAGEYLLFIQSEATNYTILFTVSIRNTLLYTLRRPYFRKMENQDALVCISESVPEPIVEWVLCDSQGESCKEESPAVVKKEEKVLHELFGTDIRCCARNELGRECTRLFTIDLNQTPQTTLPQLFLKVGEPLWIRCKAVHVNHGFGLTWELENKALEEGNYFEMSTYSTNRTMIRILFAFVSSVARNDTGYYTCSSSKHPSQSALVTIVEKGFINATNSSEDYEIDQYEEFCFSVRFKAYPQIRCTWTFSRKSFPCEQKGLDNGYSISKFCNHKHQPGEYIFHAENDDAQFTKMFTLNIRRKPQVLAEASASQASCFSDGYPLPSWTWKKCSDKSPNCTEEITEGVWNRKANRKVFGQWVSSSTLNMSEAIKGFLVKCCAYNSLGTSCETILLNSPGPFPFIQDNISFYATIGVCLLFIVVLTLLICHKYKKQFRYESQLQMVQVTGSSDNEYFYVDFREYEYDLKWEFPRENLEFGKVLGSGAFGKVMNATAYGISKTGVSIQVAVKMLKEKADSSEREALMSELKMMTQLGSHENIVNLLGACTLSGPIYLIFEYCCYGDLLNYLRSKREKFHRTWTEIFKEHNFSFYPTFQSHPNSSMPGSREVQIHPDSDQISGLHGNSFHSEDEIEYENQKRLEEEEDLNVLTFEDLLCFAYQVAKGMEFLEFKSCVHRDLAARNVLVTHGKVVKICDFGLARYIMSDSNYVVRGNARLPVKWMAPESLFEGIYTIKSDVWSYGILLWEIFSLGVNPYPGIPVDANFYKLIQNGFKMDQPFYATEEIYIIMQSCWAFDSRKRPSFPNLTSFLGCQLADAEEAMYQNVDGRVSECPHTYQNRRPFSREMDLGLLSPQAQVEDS
The experiment is described as follows: Inhibition of human FLT3 D835Y mutant catalytic domain expressed in baculovirus assessed as substrate phosphorylation using fluorescence-labelled peptides as substrate at 0.1 uM after 90 mins by microfluidic peptide phosphorylation assay.

Experiment [5] concerns the target Tyrosine-protein kinase Lck (Homo sapiens) (UniProt P06239). The following applies: 0.1 uM.
Description: Inhibition of human full length LCK expressed in baculovirus assessed as substrate phosphorylation using fluorescence-labelled peptides as substrate at 0.1 uM after 90 mins by microfluidic peptide phosphorylation assay
Experiment [6] concerns the target Ribosomal protein S6 kinase alpha-1 (Homo sapiens) (UniProt Q15418). The experiment is described as follows: Inhibition of human full length RSK1 expressed in baculovirus assessed as substrate phosphorylation using fluorescence-labelled peptides as substrate at 0.06 uM after 90 mins by microfluidic peptide phosphorylation assay.
Experiment [7] has as its target Protein kinase C beta type (Homo sapiens) (UniProt P05771). Briefly: Inhibition of human truncated PKC beta1 expressed in baculovirus assessed as substrate phosphorylation using fluorescence-labelled peptides as substrate at 0.06 uM after 90 mins by microfluidic peptide phosphorylation assay.
Experiment [8] has as its target T3, Serine/threonine-protein kinase 3 (Homo sapiens) (UniProt Q13188).
T3 sequence (whole entry): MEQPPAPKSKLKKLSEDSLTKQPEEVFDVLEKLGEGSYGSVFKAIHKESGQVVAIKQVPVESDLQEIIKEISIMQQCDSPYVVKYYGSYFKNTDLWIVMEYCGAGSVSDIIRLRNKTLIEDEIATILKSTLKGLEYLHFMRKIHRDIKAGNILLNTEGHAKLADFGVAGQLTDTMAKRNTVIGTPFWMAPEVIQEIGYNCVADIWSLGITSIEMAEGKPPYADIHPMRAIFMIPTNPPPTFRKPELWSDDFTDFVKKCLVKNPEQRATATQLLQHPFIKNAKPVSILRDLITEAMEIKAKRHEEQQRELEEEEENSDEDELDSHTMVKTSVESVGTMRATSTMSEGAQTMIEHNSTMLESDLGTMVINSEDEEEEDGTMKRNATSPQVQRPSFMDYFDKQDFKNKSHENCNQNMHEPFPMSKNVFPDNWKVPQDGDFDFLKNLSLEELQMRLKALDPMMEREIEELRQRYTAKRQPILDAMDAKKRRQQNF
The experiment is described as follows: Inhibition of human full length MST2 expressed in baculovirus assessed as substrate phosphorylation using fluorescence-labelled peptides as substrate at 1000 uM after 90 mins by microfluidic peptide phosphorylation assay.

Tyrosine-protein kinase Lck (Homo sapiens), sequence (P06239 2-509 limits assumed): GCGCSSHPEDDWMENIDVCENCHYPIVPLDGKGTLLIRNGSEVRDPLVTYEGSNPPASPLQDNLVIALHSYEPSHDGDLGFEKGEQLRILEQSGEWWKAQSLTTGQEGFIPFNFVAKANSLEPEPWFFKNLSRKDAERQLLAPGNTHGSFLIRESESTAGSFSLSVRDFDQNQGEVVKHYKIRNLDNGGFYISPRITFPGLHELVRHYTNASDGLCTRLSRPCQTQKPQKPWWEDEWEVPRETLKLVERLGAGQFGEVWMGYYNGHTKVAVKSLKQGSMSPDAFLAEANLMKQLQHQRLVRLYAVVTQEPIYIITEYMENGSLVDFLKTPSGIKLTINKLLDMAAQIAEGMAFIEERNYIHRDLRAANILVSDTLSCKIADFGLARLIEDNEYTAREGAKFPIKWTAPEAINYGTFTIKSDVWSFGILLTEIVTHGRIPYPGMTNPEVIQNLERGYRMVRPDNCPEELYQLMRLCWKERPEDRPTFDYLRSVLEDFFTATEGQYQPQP
Protein kinase C beta type (Homo sapiens), sequence (P05771 2-671 limits assumed): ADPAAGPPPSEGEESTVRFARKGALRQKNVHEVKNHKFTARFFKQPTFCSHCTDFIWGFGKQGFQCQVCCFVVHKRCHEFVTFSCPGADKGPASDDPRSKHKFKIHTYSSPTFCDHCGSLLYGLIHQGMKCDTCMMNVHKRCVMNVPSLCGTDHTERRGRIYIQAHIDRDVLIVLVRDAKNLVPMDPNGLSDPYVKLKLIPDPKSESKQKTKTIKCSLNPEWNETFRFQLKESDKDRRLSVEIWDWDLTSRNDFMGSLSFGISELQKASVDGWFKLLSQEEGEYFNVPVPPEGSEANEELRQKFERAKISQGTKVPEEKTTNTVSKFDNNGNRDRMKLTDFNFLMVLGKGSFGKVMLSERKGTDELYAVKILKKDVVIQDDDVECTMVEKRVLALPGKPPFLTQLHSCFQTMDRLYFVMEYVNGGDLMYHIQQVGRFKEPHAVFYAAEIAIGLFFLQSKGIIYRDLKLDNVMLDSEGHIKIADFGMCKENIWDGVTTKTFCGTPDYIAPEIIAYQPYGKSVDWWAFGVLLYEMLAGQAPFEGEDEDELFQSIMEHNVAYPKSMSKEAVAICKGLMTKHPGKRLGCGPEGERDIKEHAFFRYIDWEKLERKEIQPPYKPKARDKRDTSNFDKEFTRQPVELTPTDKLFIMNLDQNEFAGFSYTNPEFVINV
Serine/threonine-protein kinase pim-1 (Homo sapiens), sequence (P11309 whole entry, looked up): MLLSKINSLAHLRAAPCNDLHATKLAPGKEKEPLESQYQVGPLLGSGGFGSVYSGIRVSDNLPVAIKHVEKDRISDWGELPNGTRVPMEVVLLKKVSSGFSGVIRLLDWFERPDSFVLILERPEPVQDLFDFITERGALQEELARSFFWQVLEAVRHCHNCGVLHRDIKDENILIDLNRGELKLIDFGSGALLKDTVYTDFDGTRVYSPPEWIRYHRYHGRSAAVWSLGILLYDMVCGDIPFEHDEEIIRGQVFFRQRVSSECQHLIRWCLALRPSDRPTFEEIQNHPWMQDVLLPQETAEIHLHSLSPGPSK
Ribosomal protein S6 kinase alpha-1 (Homo sapiens), sequence (Q15418 whole entry, the tested form may be a part): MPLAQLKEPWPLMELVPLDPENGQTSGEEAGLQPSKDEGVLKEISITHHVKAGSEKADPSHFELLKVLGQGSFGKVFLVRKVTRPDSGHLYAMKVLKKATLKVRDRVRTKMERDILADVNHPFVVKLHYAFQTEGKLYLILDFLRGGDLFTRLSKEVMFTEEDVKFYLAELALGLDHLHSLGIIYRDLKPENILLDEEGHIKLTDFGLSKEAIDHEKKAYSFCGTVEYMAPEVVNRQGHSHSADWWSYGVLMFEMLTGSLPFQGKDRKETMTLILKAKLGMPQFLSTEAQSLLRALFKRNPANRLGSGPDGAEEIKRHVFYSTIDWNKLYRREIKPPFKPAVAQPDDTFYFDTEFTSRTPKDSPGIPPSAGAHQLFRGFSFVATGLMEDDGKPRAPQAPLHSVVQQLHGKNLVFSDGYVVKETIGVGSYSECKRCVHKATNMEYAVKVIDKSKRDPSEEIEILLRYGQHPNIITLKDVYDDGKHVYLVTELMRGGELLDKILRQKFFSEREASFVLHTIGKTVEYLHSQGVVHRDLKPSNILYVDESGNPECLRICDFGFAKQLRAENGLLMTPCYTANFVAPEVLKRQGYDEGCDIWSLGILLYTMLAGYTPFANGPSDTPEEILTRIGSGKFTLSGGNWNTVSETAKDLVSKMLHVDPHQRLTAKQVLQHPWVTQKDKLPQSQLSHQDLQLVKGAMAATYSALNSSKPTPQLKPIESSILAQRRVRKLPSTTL

Consider `c1nc(N2CCOCC2)c2nc[nH]c2n1`, for which the figures for the inhibition in experiment [1] and in experiment [2] were 67.5% and 31.5%, respectively.

`C[C@H](CN(C)C)Oc1nc(Nc2cc3cccc(Cl)c3cn2)cnc1C#N`: the inhibition is 19% in experiment [3], 27% in experiment [4] and 0% in experiment [5].

`NC1(Cc2ccc(Cl)cc2)CCN(c2ncnc3[nH]ccc23)CC1`: the inhibition in experiment [6] was found to be 19.5%; in experiment [7] it was 3.5%.

For the molecule `c1cnc2[nH]ccc2c1`, the inhibition in experiment [8] was found to be 63%.

As usually defined, the inhibition is the percentage by which the read-out fell short of the control.
